Measured values as given in US20240383923A1, “HETEROARYL DERIVATIVE AND USE THEREOF” (VORONOI INC., priority 2022, published 2024).

Tested on: BT-474 cancer cells
Assay: Inhibition of BT-474 cell proliferation (CellTiter-Glo)
Format: cell-based
Conditions: Homo sapiens, BT-474 cells, 120 hours
Method: BT-474 cancer cells were cultured by using RPMI-1640 medium containing 20% FBS. The BT-474 cancer cells were seeded to a white clear bottom 96 well plate (Corning) at 5,000 cells per well 48 hours before the BT-474 cancer cells were treated with Example Compounds. Example Compounds were diluted in dimethylsulfoxide (3-fold diluted, total 11 concentrations) and 1 μL each was injected so that the final concentration was 0.2 nM to 10 μM. For the measurement of living cells, the cells were stored at room temperature for 10 minutes using the CellTiter-Glo cell viability reagent (Promega) after a predetermined time (120 hours) after the treatment of Example Compounds, and then the luminescence intensity was measured using a reader (SynergyNeo, Biotek). Each test was repeated three times.
The result value was calculated as a cell growth rate (%) compared to a control group. Graphs were plotted and GI50 values were calculated using the GraphPad Prism version 8.0 program, and the results are shown in Table 18 below.

GI50, ≤ 0.05 µM:
COc1cc2ncnc(Nc3cc(F)c(Oc4ccc5c(c4)ncn5C)cc3OC)c2cc1NC(=O)/C(F)=C/[C@H]1CCCN1C [Example 61, (R,Z)-2-fluoro-N-(4-((5-fluoro-2-methoxy-4-((1-methyl-1H-benzo[d]imidazol-5-yl)oxy)phenyl)amino)-7-methoxyquinazolin-6-yl)-3-(1-methylpyrrolidin-2-yl)acrylamide]
COc1cc2ncnc(Nc3cc(C)c(Oc4ccc5nccnc5c4)cc3OC)c2cc1NC(=O)/C(F)=C/[C@H]1CCCN1C [Example 63, (R,Z)-2-fluoro-N-(7-methoxy-4-((2-methoxy-5-methyl-4-(quinoxalin-6-yloxy)phenyl)amino)quinazolin-6-yl)-3-(1-methylpyrrolidin-2-yl)acrylamide]
COc1cc2ncnc(Nc3cc(C)c(Oc4ccc5ccccc5c4)cc3OC)c2cc1NC(=O)/C(F)=C/[C@H]1CCCN1C [Example 64, (R,Z)-2-fluoro-N-(7-methoxy-4-((2-methoxy-5-methyl-4-(naphthalen-2-yloxy)phenyl)amino)quinazolin-6-yl)-3-(1-methylpyrrolidin-2-yl)acrylamide]
COc1cc2ncnc(Nc3cc(C)c(Oc4ccc5ccccc5c4)cc3OC)c2cc1NC(=O)/C(F)=C\[C@H]1CCCN1C [Example 65, (R,E)-2-fluoro-N-(7-methoxy-4-((2-methoxy-5-methyl-4-(naphthalen-2-yloxy)phenyl)amino)quinazolin-6-yl)-3-(1-methylpyrrolidin-2-yl)acrylamide]
COc1cc2ncnc(Nc3cc(C)c(Oc4ccc5oc(C)nc5c4)cc3OC)c2cc1NC(=O)/C(F)=C/[C@H]1CCCN1C [Example 68, (R,Z)-2-fluoro-N-(7-methoxy-4-((2-methoxy-5-methyl-4-((2-methylbenzo[d]oxazol-5-yl)oxy)phenyl)amino)quinazolin-6-yl)-3-(1-methylpyrrolidin-2-yl)acrylamide]
COc1cc2ncnc(Nc3cc(C)c(Oc4ccc5c(c4)NC(O)O5)cc3OC)c2cc1NC(=O)/C(F)=C/[C@H]1CCCN1C (stereo partly drawn) [Example 70, (Z)-2-fluoro-N-(4-((4-((2-hydroxy-2,3-dihydrobenzo[d]oxazol-5-yl)oxy)-2-methoxy-5-methylphenyl)amino)-7-methoxyquinazolin-6-yl)-3-((R)-1-methylpyrrolidin-2-yl)acrylamide]
COc1cc2ncnc(Nc3cc(C)c(Oc4ccn(C)c(=O)c4)cc3OC)c2cc1NC(=O)/C(F)=C\[C@H]1CCCN1C [Example 71, (R,E)-2-fluoro-N-(7-methoxy-4-((2-methoxy-5-methyl-4-((1-methyl-2-oxo-1,2-dihydropyridin-4-yl)oxy)phenyl)amino)quinazolin-6-yl)-3-(1-methylpyrrolidin-2-yl)acrylamide]
COc1cc2ncnc(Nc3cc(C)c(Oc4ccc5ncnn5c4)cc3OC)c2cc1NC(=O)/C(F)=C\[C@H]1CCCN1C [Example 72, (R,E)-N-(4-((4-([1,2,4]triazolo[1,5-a]pyridin-6-yloxy)-2-methoxy-5-methylphenyl)amino)-7-methoxyquinazolin-6-yl)-2-fluoro-3-(1-methylpyrrolidin-2-yl)acrylamide]
COc1cc2ncnc(Nc3cc(C)c(Oc4ccc5ncnn5c4)cc3OC)c2cc1NC(=O)/C(F)=C/[C@H]1CCCN1C [Example 73, (R,Z)—N-(4-((4-([1,2,4]triazolo[1,5-a]pyridin-6-yloxy)-2-methoxy-5-methylphenyl)amino)-7-methoxyquinazolin-6-yl)-2-fluoro-3-(1-methylpyrrolidin-2-yl)acrylamide]
COc1cc2ncnc(Nc3cc(C)c(Oc4cnc5ccnn5c4)cc3OC)c2cc1NC(=O)/C(F)=C\[C@H]1CCCN1C [Example 79, (R,E)-2-fluoro-N-(7-methoxy-4-((2-methoxy-5-methyl-4-(pyrazolo[1,5-a]pyrimidin-6-yloxy)phenyl)amino)quinazolin-6-yl)-3-(1-methylpyrrolidin-2-yl)acrylamide]
COc1cc2ncnc(Nc3cc(C)c(Oc4cnc5ccnn5c4)cc3OC)c2cc1NC(=O)/C(F)=C/[C@H]1CCCN1C [Example 80, (R,Z)-2-fluoro-N-(7-methoxy-4-((2-methoxy-5-methyl-4-(pyrazolo[1,5-a]pyrimidin-6-yloxy)phenyl)amino)quinazolin-6-yl)-3-(1-methylpyrrolidin-2-yl)acrylamide]
COc1cc2ncnc(Nc3cc(C)c(Oc4ccc5ncsc5c4)cc3OC)c2cc1NC(=O)/C(F)=C\[C@H]1CCCN1C [Example 81, (R,E)-N-(4-((4-(benzo[d]thiazol-6-yloxy)-2-methoxy-5-methylphenyl)amino)-7-methoxyquinazolin-6-yl)-2-fluoro-3-(1-methylpyrrolidin-2-yl)acrylamide]
COc1cc2ncnc(Nc3cc(C)c(Oc4ccc5ncsc5c4)cc3OC)c2cc1NC(=O)/C(F)=C/[C@H]1CCCN1C [Example 82, (R,Z)—N-(4-((4-(benzo[d]thiazol-6-yloxy)-2-methoxy-5-methylphenyl)amino)-7-methoxyquinazolin-6-yl)-2-fluoro-3-(1-methylpyrrolidin-2-yl)acrylamide]
COc1cc2ncnc(Nc3cc(C)c(Oc4ccc5scnc5c4)cc3OC)c2cc1NC(=O)/C(F)=C\[C@H]1CCCN1C [Example 84, (R,E)-N-(4-((4-(benzo[d]thiazol-5-yloxy)-2-methoxy-5-methylphenyl)amino)-7-methoxyquinazolin-6-yl)-2-fluoro-3-(1-methylpyrrolidin-2-yl)acrylamide]
COc1cc2ncnc(Nc3cc(C)c(Oc4ccc5c(c4)OCO5)cc3OC)c2cc1NC(=O)/C(F)=C\[C@H]1CCCN1C [Example 85, (R,E)-N-(4-((4-(benzo[d][1,3]dioxol-5-yloxy)-2-methoxy-5-methylphenyl)amino)-7-methoxyquinazolin-6-yl)-2-fluoro-3-(1-methylpyrrolidin-2-yl)acrylamide]
COc1cc2ncnc(Nc3cc(C)c(Oc4ccc5c(c4)OCO5)cc3OC)c2cc1NC(=O)/C(F)=C/[C@H]1CCCN1C [Example 86, (R,Z)—N-(4-((4-(benzo[d][1,3]dioxol-5-yloxy)-2-methoxy-5-methylphenyl)amino)-7-methoxyquinazolin-6-yl)-2-fluoro-3-(1-methylpyrrolidin-2-yl)acrylamide]
COc1cc2ncnc(Nc3cc(C)c(Oc4ccc5cccnc5c4)cc3OC)c2cc1NC(=O)/C(F)=C/[C@H]1CCCN1C [Example 87, (R,Z)-2-fluoro-N-(7-methoxy-4-((2-methoxy-5-methyl-4-(quinolin-7-yloxy)phenyl)amino)quinazolin-6-yl)-3-(1-methylpyrrolidin-2-yl)acrylamide]
COc1cc2ncnc(Nc3cc(C)c(Oc4ccc5cccnc5c4)cc3OC)c2cc1NC(=O)/C(F)=C\[C@H]1CCCN1C [Example 88, (R,E)-2-fluoro-N-(7-methoxy-4-((2-methoxy-5-methyl-4-(quinolin-7-yloxy)phenyl)amino)quinazolin-6-yl)-3-(1-methylpyrrolidin-2-yl)acrylamide]
COc1cc2ncnc(Nc3cc(C)c(Oc4ccc5cnn(C)c5c4)cc3OC)c2cc1NC(=O)/C(F)=C\[C@H]1CCCN1C [Example 89, (R,E)-2-fluoro-N-(7-methoxy-4-((2-methoxy-5-methyl-4-((1-methyl-1H-indazol-6-yl)oxy)phenyl)amino)quinazolin-6-yl)-3-(1-methylpyrrolidin-2-yl)acrylamide]
COc1cc2ncnc(Nc3cc(C)c(Oc4ccc5cnn(C)c5c4)cc3OC)c2cc1NC(=O)/C(F)=C/[C@H]1CCCN1C [Example 90, (R,Z)-2-fluoro-N-(7-methoxy-4-((2-methoxy-5-methyl-4-((1-methyl-1H-indazol-6-yl)oxy)phenyl)amino)quinazolin-6-yl)-3-(1-methylpyrrolidin-2-yl)acrylamide]
COCCOc1cc2ncnc(Nc3cc(C)c(Oc4ccn5ncnc5c4)cc3OC)c2cc1NC(=O)/C(F)=C\[C@H]1CCCN1C [Example 94, (R,E)-N-(4-((4-([1,2,4]triazolo[1,5-a]pyridin-7-yloxy)-2-methoxy-5-methylphenyl)amino)-7-(2-methoxyethoxy)quinazolin-6-yl)-2-fluoro-3-(1-methylpyrrolidin-2-yl)acrylamide]
COc1cc(Oc2ccn3ncnc3c2)c(C)cc1Nc1ncnc2cc(OC3CCOC3)c(NC(=O)/C(F)=C/[C@H]3CCCN3C)cc12 (stereo partly drawn) [Example 97, (Z)—N-(4-((4-([1,2,4]triazolo[1,5-a]pyridin-7-yloxy)-2-methoxy-5-methylphenyl)amino)-7-((tetrahydrofuran-3-yl)oxy)quinazolin-6-yl)-2-fluoro-3-((R)-1-methylpyrrolidin-2-yl)acrylamide]
COc1cc(Oc2ccn3ncnc3c2)c(C)cc1Nc1ncnc2cc(OC(F)F)c(NC(=O)/C(F)=C/[C@H]3CCCN3C)cc12 [Example 98, (R,Z)—N-(4-((4-([1,2,4]triazolo[1,5-a]pyridin-7-yloxy)-2-methoxy-5-methylphenyl)amino)-7-(difluoromethoxy)quinazolin-6-yl)-2-fluoro-3-(1-methylpyrrolidin-2-yl)acrylamide]
